Reference: paper PMC5949348, “The Metabolism of Separase Inhibitor Sepin-1 in Human, Mouse, and Rat Liver Microsomes” (Frontiers in Pharmacology, 2018)
Where “and” joins values, the source holds several entries; their conditions need not be identical. Equal entries are not always repeated. Where two headings read alike, the source gives them in different places.

Columns and labels:
CYP2C8 = molecular target: T1, CYP2C8 (Homo sapiens, UniProt P10632); test: Inhibition of sepin-1 on CYP2C8; format: in vitro ADME
T1 construct: purchased XenoTech
T1 sequence (P10632 1-490): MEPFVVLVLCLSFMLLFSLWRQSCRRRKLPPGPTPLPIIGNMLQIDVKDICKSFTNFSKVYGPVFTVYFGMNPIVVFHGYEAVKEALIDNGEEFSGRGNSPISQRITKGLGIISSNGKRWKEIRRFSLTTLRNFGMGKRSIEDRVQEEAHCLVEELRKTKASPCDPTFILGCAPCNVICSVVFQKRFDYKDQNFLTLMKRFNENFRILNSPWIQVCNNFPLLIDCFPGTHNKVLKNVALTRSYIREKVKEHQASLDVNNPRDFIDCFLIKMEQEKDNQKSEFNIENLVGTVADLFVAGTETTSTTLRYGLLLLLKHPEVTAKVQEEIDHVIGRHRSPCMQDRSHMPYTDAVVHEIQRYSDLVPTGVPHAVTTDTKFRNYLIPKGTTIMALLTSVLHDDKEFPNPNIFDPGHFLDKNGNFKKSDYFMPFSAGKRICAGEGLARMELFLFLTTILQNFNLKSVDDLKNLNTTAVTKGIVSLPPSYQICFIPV
Protocol: (§1) Incubations were performed in 1× PBS (pH 7.4), containing 0, 0.156, 0.312, 0.625, 1.25, 2.5, 5, 10, 20, or 40 μM sepin-1, 2 pmol of each cDNA-expressed P450 enzymes, and corresponding substrates: CYP1A2 (phenacetin, 40 μM, 20 min incubation), 2B6 (efavirenz, 20 μM, 30 min), 2C8 (paclitaxel, 10 μM, 30 min), 2C9 (diclofenac, 5 μM, 15 min), 2C19 [(S)-mephenytoin, 40 μM, 20 min], 2D6 (dextromethorphan, 5 μM, 15 min), and CYP3A4 (midazolam, 3 μM, 10 min) in a final volume of 190 μl. After 5 min of pre-incubation at 37°C, the reaction was initiated by adding 10 μl of 20 mM NADPH (final concentration 1.0 mM) and continued for a specific time as presented above with gentle shaking. Incubations without sepin-1 were used as controls. Reactions were terminated by the addition of 200 μl of ice-cold methanol, vortexing for 30 s, and centrifuging at 15,000 × g for 15 min. Each supernatant was transferred to an auto sampler vial and 5.0 μl was injected on to UHPLC coupled with a QQQMS system for the specific metabolite analysis. A MRM method was used. Incubations were conducted in duplicate. Positive controls were performed by using a known specific inhibitor for each of the isoform assays (Supplementary Table S1). […]

separase = system: separase; parameters: method as in Zhang et al., 2014; details: ref Zhang et al., 2014; cited from earlier work
CYP2D6 = molecular target: T2, CYP2D6 (Homo sapiens, UniProt P10635); test: Inhibition of sepin-1 on CYP2D6; format: in vitro ADME
T2 construct: purchased XenoTech
Protocol: as §1

CYP3A4 = molecular target: T3, CYP3A4 (Homo sapiens, UniProt P08684); test: Inhibition of sepin-1 on CYP3A4; format: in vitro ADME
T3 construct: purchased XenoTech
Protocol: as §1

CYP2B6 = molecular target: T4, CYP2B6 (Homo sapiens, UniProt P20813); test: Inhibition of sepin-1 on CYP2B6; format: in vitro ADME
T4 construct: purchased XenoTech
T4 sequence (P20813 1-491): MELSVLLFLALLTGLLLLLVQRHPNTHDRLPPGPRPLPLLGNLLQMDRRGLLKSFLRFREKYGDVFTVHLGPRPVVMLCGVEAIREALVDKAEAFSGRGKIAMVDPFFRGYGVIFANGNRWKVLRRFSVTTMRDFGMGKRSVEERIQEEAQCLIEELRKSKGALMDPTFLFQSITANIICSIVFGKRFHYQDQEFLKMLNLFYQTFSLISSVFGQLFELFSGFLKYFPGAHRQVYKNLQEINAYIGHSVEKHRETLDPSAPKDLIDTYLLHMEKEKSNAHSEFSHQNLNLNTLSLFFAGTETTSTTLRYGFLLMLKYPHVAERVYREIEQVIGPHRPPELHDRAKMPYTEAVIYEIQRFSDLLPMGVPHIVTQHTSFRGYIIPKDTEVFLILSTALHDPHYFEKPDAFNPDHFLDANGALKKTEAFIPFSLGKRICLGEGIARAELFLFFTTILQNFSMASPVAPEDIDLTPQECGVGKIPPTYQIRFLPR
Protocol: as §1

T3 sequence (P08684 whole entry): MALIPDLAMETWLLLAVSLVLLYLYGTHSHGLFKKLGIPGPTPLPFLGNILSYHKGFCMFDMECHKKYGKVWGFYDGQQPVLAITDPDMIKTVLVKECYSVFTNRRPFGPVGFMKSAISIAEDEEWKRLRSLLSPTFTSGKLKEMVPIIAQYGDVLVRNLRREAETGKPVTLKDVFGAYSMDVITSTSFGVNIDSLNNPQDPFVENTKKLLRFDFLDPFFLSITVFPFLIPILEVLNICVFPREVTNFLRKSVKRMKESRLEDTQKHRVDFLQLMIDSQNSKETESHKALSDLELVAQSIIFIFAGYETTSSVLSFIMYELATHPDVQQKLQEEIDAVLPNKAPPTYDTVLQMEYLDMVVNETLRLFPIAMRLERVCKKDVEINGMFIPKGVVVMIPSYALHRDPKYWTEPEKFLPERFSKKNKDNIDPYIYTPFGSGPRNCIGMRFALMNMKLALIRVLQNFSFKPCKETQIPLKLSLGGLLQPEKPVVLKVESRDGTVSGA
T2 sequence (P10635 whole entry): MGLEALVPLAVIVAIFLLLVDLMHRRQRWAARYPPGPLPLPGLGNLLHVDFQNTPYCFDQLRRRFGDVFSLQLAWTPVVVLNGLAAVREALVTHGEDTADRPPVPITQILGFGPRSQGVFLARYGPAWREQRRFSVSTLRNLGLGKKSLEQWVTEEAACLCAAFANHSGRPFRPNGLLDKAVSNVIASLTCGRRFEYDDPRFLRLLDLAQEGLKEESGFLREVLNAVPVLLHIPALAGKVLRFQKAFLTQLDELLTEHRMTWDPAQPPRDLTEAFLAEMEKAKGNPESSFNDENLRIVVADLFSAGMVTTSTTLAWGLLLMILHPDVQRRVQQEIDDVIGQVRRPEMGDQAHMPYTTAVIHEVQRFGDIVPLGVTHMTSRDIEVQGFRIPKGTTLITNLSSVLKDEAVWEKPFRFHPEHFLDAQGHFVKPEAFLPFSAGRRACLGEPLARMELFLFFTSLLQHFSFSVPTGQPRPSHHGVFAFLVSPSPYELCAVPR

Inhibition potency class on CYP2C8 (CYP2C8; FDA classification bands): weak inhibition
IC50 (CYP2C8; substrate paclitaxel 10 μM, 30 min, metabolite 6-O-paclitaxel, co-incubation): > 10 µM and 17.8 µM
Inhibition potency class on CYP2D6 (CYP2D6; FDA classification bands): weak inhibition
IC50 (CYP2D6; substrate dextromethorphan 5 μM, 15 min, O-demethylation, co-incubation): > 10 µM and 42.5 µM
IC50 (CYP3A4; FDA classification bands, read-out: Inhibition potency class on CYP3A4): 1 to 10 µM
IC50 (CYP3A4; substrate midazolam 3 μM, 10 min, metabolite 1-O-midazolam, co-incubation, read-out: IC50 on CYP3A4): < 10 µM and 8.7 µM
Inhibition potency class on CYP2B6 (CYP2B6; FDA classification bands): weak inhibition
IC50 (CYP2B6; substrate efavirenz 20 μM, 30 min, metabolite 8-O-efavirenz, co-incubation): > 10 µM and 14.5 µM
Compound: CC1(C)[N+]([O-])=c2ccc([N+](=O)[O-])cc2=[N+]1[O-] [Sepin-1, 2,2-dimethyl-5-nitro-2H-benzimidazole-1,3-dioxide]
Inhibition of separase activity (mode) (separase): inhibits separase activity in a non-competitive way
